In brackets after ≈: the same amount, converted by molar mass.
Test system: not listed separately
Assay: Kinetic solubility in PBS pH 7.4, HPLC-UV (Example 21, Table 27)
Format: physicochemical
Conditions: phosphate buffered saline, aqueous buffer, kinetic from dmso stock, 0.5 M PBS, shaken minimum 24 h at approximately 25° C., HPLC-UV 270 nm
How it was run: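 10 mM DMSO stock diluted into 0.05 M PBS pH 7.4 (5% DMSO final), in triplicate, shaken ≥24 h at ~25 °C, then filtered by centrifugation. Supernatant concentration by HPLC-UV at 270 nm against external DMSO standards (15.6–500.0 μM).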

Row | SMILES | solubility kinetic [µM]
1 | COc1cc(CCN2CCS(=O)(=O)CC2)ccc1CN1C(=O)N(c2ccc(OC)c(OCCCC3CC3)c2)CC[C@@H]1C [SC0162] | < 10
2 | CCCCCOc1cc(N2CC[C@@H](C)N(Cc3cccc4[nH]cc(Cl)c34)C2=O)ccc1OC [SC0167] | < 10
3 | CCCCCOc1cc(N2CC(C(N)=O)CN(Cc3ccc(CC(=O)N(C)C)cc3OC)C2=O)ccc1OC (stereo not shown) [SC0204] | 465 (≈ 251 µg/mL)
4 | COc1cc(CC(=O)N2CCNC(=O)C2)ccc1CN1CC(C)CN(c2ccc(OC)c(OCCCC3CC3)c2)C1=O (stereo not shown) [SC0158] | 16 (≈ 9.26 µg/mL)
5 | CCCCCOc1cc(N2CC[C@H](C)N(Cc3ccnc4c3c(Cl)cn4CC(=O)N3CCO[C@H](COC)C3)C2=O)ccc1OC [SC0127] | < 10
6 | COc1cc(CC(=O)N2CCN(C)CC2)ccc1CN1C(=O)N(c2ccc(OC)c(OCCCC3CC3)c2)CC[C@@H]1C [SC0137] | 275 (≈ 159 µg/mL)

Target: T1, Human C5 (Homo sapiens, UniProt P01031)
T1 construct: purchased Complement Technology
Assay: Red blood cell (RBC) hemolysis assay, luminescent (Example 28, Table 32)
Format: cell-based
Conditions: sheep EA cells, 1.5% C5-depleted human serum, 0.5 nM human C5, 1 hour at 37° C., luminescence (Table 32)
Description: Sheep red blood cells coated with rabbit anti-sheep erythrocyte antiserum (EA cells; Complement Technology, Tyler, Tex.) were used to assay compound inhibitory activity of the classical complement activation pathway. Briefly, the EA cells were washed once and resuspended in the same volume of GVB++ buffer (Complement Technology, Tyler, Tex.). 25 μL of EA cells were then distributed into each well of 384-well tissue culture plates using Apricot iPipette Pro (Apricot Designs; Covina, Calif.). Compounds were tested in 10 points of final concentrations ranging from 16.67 μM to 1.65 μM in a 6-fold titration series. Compounds were dispensed into 384-well plates from 6.7 mM and 3.35 μM DMSO working stocks using an HP Digital Dispenser (HP; Corvallis, Oreg.). The reactions also contained 1.5% (v/v) C5-depleted human serum (Complement Technology). Hemolysis was induced by addition of human C5 (Complement Technology) at a concentration of 0.5 nM and plates were incubated for 1 hour at 37° C. in a cell culture incubator. The extent of hemolysis was measured by ability of released hemoglobin to catalyze luminol in the presence of hydrogen peroxide. Luminescence was then measured using a plate reader. Luminescence measurements were used to prepare a dose-response curve. From the curve, the half maximal inhibitory concentration (IC50) for each compound was determined, where the IC50 represents the concentration of each compound needed to reduce red blood cell hemolysis by half.

T1 sequence (P01031 19-1676): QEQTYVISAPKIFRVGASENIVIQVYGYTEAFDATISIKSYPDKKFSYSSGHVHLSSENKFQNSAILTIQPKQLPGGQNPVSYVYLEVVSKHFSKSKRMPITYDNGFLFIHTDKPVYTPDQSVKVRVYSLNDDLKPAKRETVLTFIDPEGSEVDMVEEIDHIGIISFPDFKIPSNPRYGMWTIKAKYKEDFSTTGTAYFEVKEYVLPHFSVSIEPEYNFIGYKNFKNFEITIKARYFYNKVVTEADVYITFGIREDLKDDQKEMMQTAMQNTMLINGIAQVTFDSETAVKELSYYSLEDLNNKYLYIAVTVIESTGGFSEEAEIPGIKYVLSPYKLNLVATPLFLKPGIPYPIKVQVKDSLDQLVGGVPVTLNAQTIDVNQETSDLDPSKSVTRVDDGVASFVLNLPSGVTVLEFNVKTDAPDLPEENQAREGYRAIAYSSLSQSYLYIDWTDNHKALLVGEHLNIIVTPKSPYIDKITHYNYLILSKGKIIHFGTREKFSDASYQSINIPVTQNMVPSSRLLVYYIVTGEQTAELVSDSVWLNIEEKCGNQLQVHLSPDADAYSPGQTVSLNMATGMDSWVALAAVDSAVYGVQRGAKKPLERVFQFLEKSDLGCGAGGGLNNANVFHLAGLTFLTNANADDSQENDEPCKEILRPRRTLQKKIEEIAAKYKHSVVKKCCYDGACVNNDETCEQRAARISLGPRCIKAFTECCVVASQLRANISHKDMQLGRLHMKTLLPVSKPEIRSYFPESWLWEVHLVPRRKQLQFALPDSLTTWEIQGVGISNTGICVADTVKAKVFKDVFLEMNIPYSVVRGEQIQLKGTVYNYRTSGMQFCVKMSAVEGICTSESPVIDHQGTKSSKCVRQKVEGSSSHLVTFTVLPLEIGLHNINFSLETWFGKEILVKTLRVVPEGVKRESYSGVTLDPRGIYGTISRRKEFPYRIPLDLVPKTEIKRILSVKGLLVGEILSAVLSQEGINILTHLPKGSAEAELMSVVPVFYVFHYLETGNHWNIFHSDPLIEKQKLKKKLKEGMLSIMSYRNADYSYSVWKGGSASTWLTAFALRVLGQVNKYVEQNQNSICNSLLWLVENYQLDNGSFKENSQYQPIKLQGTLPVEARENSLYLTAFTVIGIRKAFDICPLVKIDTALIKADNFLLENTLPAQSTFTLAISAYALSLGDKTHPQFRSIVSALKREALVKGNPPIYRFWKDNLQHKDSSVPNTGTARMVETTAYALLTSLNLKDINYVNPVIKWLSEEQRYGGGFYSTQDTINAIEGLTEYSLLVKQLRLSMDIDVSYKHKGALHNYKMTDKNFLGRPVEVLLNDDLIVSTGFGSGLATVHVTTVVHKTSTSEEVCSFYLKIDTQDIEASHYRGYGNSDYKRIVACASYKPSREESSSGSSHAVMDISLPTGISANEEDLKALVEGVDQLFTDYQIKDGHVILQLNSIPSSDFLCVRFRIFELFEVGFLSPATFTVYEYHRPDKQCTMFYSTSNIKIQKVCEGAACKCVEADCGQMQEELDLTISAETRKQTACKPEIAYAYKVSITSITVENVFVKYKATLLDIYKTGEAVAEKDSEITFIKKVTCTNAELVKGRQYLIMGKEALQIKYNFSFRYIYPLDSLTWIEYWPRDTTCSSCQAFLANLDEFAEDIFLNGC

Row | SMILES | IC50 [nM]
7 | COc1cc(CCN2CCS(=O)(=O)CC2)ccc1CN1C(=O)N(c2ccc(OC)c(OCCCC3CC3)c2)CC[C@@H]1C [SC0162] | 2.8
8 | COc1cc(Cc2cnccn2)ccc1CN1C(=O)N(c2ccc(OC)c(OCCCC3CC3)c2)CC[C@@H]1C [SC0138] | 1.8
9 | CCCCCOc1cc(N2CC[C@@H](C)N(Cc3cccc4[nH]ccc34)C2=O)ccc1OC [SC0214] | 18.2
10 | CCCCCOc1cc(N2C[C@@H](CO)CN(Cc3ccc(CC(=O)N(C)C)cc3OC)C2=O)ccc1OC [SC0206] | 11.7
11 | CCCCCOc1cc(N2CC[C@H](C)N(Cc3ccc(CCO)cc3OC)C2=O)ccc1OC [SC0197] | 9.1
12 | CCCCCOc1cc(N2CC[C@@H](C)N(Cc3cccc4c3ccn4CC(=O)O)C2=O)ccc1OC [SC0227] | 135
13 | COc1cc(CC(=O)N[C@@H]2CCNC2)ccc1CN1C(=O)N(c2ccc(OC)c(OCCCC3CC3)c2)CC[C@@H]1C [SC0166] | 3.1
14 | CCCCCOc1cc(N2CC(C)CN(Cc3ccc(C#N)cc3OC)C2=O)ccc1OC (stereo not shown) [SC0228] | 211
15 | COc1cc(CC(=O)O)ccc1CN1C(=O)N(c2ccc(OC)c(OCCCC3CC3)c2)CC[C@@H]1C [SC0192] | 7.8
16 | CCCCCOc1cc(N2CC[C@@H](C)N(Cc3cccc4[nH]cc(Cl)c34)C2=O)ccc1OC [SC0167] | 3.2
17 | CCCCCOc1cc(N2C[C@H](CO)CN(Cc3ccc(CC(=O)N(C)C)cc3OC)C2=O)ccc1OC [SC0176] | 4.5
18 | COc1cc(CC(=O)N[C@H]2CNC[C@H]2F)ccc1CN1C(=O)N(c2ccc(OC)c(OCCCC3CC3)c2)CC[C@@H]1C [SC0152] | 2.3
19 | CCCCCOc1cc(N2CC(CO)CN(Cc3ccc(CNC(C)=O)cc3OC)C2=O)ccc1OC (stereo not shown) [SC0189] | 7
20 | CCCCCOc1cc(N2CC[C@@H](C)N(Cc3cccc4c3ccn4S(=O)(=O)c3ccc(C)cc3)C2=O)ccc1OC [SC0230] | 703
21 | CCCCCOc1cc(N2CC[C@H](C)N(Cc3cccc4c3c(Cl)c(C)n4CC(=O)N(C)C)C2=O)ccc1OC [SC0132] | 1.7
22 | COc1cc(CC(=O)O)ccc1CN1CC(C)CN(c2ccc(OC)c(OCCCC3CC3)c2)C1=O (stereo not shown) [SC0221] | 54.4
23 | CCCCCOc1cc(N2CC[C@H](C)N(Cc3ccnc4c3c(Cl)cn4CC(=O)N(C)C)C2=O)c(F)cc1OC [SC0175] | 4.4
24 | C=C1CN(Cc2ccc(C#N)cc2OC)C(=O)N(c2ccc(OC)c(OCCCCC)c2)C1 [SC0226] | 132
25 | CCCCCOc1cc(N2CC[C@H](C)N(Cc3ccnc4c3c(Cl)cn4CC(=O)N(C)OC)C2=O)ccc1OC [SC0124] | 1.6
26 | COc1cc(CC(=O)N(C)[C@@H]2CCNC2)ccc1CN1C(=O)N(c2ccc(OC)c(OCCCC3CC3)c2)CC[C@@H]1C [SC0121] | 1.5
27 | CCCCCOc1cc(N2C[C@H](C)CN(Cc3ccc(CC(=O)N(C)C)cc3OC)C2=O)ccc1OC [SC0209] | 12.6

Row | SMILES | IC50 [nM]
28 | CCCCCOc1cc(N2CC[C@@H](C)NC2=O)ccc1OC [SC0231] | 2660
29 | CCCCCOc1cc(N2CC(CO)CN(Cc3ccc(C#N)cc3OC)C2=O)ccc1OC (stereo not shown) [SC0224] | 98.5
30 | CCCCCOc1cc(N2CC(CO)CN(Cc3ccc(CC(=O)O)cc3OC)C2=O)ccc1OC (stereo not shown) [SC0222] | 74.1
31 | COc1cc(CC(=O)N[C@@H]2CN(CCO)C[C@@H]2F)ccc1CN1C(=O)N(c2ccc(OC)c(OCCCC3CC3)c2)CC[C@@H]1C [SC0136] | 1.8
32 | CCCCCOc1cc(N2CC[C@H](C)N(Cc3cccc4c3c(Cl)c(Cl)n4CC(=O)N(C)C)C2=O)ccc1OC [SC0181] | 5.1
33 | COc1ccc(N2CC[C@H](C)N(Cc3cccc4c3ccn4CC(=O)N(C)C)C2=O)cc1OCCCC1CCC1 [SC0205] | 11.4
34 | COc1cc(CC(=O)N(C)[C@H]2CCNC2)ccc1CN1C(=O)N(c2ccc(OC)c(OCCCC3CC3)c2)CC[C@@H]1C [SC0161] | 2.8
35 | COc1cc(CC(=O)N[C@@H]2CNC[C@@H]2F)ccc1CN1C(=O)N(c2ccc(OC)c(OCCCC3CC3)c2)CC[C@@H]1C [SC0130] | 1.7
36 | CCCCCOc1cc(N2CC(C)CN(Cc3ccc(CNC(=O)OC)cc3OC)C2=O)ccc1OC (stereo not shown) [SC0200] | 9.9
37 | COc1cc(CC(=O)N(C)[C@@H]2CCN(C(=O)OC(C)(C)C)C2)ccc1CN1C(=O)N(c2ccc(OC)c(OCCCC3CC3)c2)CC[C@@H]1C [SC0202] | 10.1
38 | CCCCCOc1cc(N2CC(C(N)=O)CN(Cc3ccc(CC(=O)N(C)C)cc3OC)C2=O)ccc1OC (stereo not shown) [SC0204] | 10.9
39 | CCCCCOc1cc(N2CC[C@H](C)N(Cc3cccc4c3cc(C)n4CC(=O)N(C)C)C2=O)ccc1OC [SC0218] | 34.4
40 | COc1cc(CC(=O)N[C@H]2CCN(C(=O)OC(C)(C)C)C2)ccc1CN1C(=O)N(c2ccc(OC)c(OCCCC3CC3)c2)CC[C@@H]1C [SC0216] | 19.6
41 | COc1cc(CC(=O)N2CCNC(=O)C2)ccc1CN1CC(C)CN(c2ccc(OC)c(OCCCC3CC3)c2)C1=O (stereo not shown) [SC0158] | 2.7
42 | COc1cc(CC(=O)N[C@@H]2CCN(C(=O)OC(C)(C)C)C2)ccc1CN1C(=O)N(c2ccc(OC)c(OCCCC3CC3)c2)CC[C@@H]1C [SC0187] | 6.1
43 | COc1ccc(N2CC[C@H](C)N(Cc3cccc4c3ccn4CC(=O)N(C)C)C2=O)cc1OCCCCC1CC1 [SC0203] | 10.2
44 | CCCCCOc1cc(N2CC(COCc3ccccc3)CN(Cc3ccc(Br)cc3OC)C2=O)ccc1OC (stereo not shown) [SC0232] | 3120
45 | CCCCCOc1cc(N2CC[C@H](C)N(Cc3ccnc4c3c(Cl)cn4C3COC3)C2=O)ccc1OC [SC0151] | 2.2
46 | CCCCCOc1cc(N2C[C@@H](C)CN(Cc3ccc(CC(=O)N(C)C)cc3OC)C2=O)ccc1OC [SC0210] | 15.1
47 | CCCCCOc1cc(N2CC(COCc3ccccc3)CN(Cc3ccc(CC(=O)O)cc3OC)C2=O)ccc1OC (stereo not shown) [SC0229] | 371
48 | CCN1CC[C@@H](NC(=O)Cc2ccc(CN3C(=O)N(c4ccc(OC)c(OCCCC5CC5)c4)CC[C@@H]3C)c(OC)c2)C1 [SC0126] | 1.6

Row | SMILES | IC50 [nM]
49 | CCCCCOc1cc(N2CC[C@H](C)N(Cc3ccnc4c3c(Cl)cn4CC(=O)N3CCO[C@H](COC)C3)C2=O)ccc1OC [SC0127] | 1.7
50 | CCCCCOc1cc(N2CC[C@H](C)N(Cc3ccnc4c3c(Cl)cn4CC(=O)N3CC(O)(C(F)(F)F)C3)C2=O)ccc1OC [SC0133] | 1.7
51 | COc1cc(CCN2CC3(COC3)C2)ccc1CN1C(=O)N(c2ccc(OC)c(OCCCC3CC3)c2)CC[C@@H]1C [SC0196] | 8.6
52 | COc1cc(CC(=O)N2CCN(C)CC2)ccc1CN1C(=O)N(c2ccc(OC)c(OCCCC3CC3)c2)CC[C@@H]1C [SC0137] | 1.8
53 | CCCCCOc1cc(N2C[C@@H](C(=O)NC)CN(Cc3cc(F)ccc3OC)C2=O)ccc1OC [SC0223] | 96.9
54 | CCCCCOc1cc(N2CC[C@H](C)N(Cc3ccnc4c3c(Cl)cn4CCOCCOCCOC)C2=O)ccc1OC [SC0131] | 1.7
55 | COc1cc(CCO)ccc1CN1C(=O)N(c2ccc(OC)c(OCCCC3CC3)c2)CC[C@@H]1C [SC0180] | 4.9
56 | COc1cc(CC(=O)N(C)C)ccc1CN1CC(C)CN(c2ccc(OC)c(OCCCC3CC3)c2)C1=O (stereo not shown) [SC0194] | 8.5
57 | COc1cc(CC(=O)N(C)[C@H]2CCN(C(=O)OC(C)(C)C)C2)ccc1CN1C(=O)N(c2ccc(OC)c(OCCCC3CC3)c2)CC[C@@H]1C [SC0188] | 6.4
58 | COc1ccc(N2CC[C@H](C)N(Cc3cccc4c3c(Cl)cn4CC(=O)N(C)C)C2=O)cc1OCCCCC1CC1 [SC0145] | 2.1
59 | CCCCCOc1cc(N2C[C@H](C(=O)NC)CN(Cc3cc(F)ccc3OC)C2=O)ccc1OC [SC0217] | 25.3
60 | COc1cc(CC(=O)N[C@@H]2CN(C(=O)OC(C)(C)C)C[C@@H]2F)ccc1CN1C(=O)N(c2ccc(OC)c(OCCCC3CC3)c2)CC[C@@H]1C [SC0185] | 5.7
61 | CCN1CC[C@H](NC(=O)Cc2ccc(CN3C(=O)N(c4ccc(OC)c(OCCCC5CC5)c4)CC[C@@H]3C)c(OC)c2)C1 [SC0141] | 2.1
62 | CCCCCOc1cc(N2C[C@@H](C)CN(Cc3ccc(CC(=O)N4CCOCC4)cc3OC)C2=O)ccc1OC [SC0201] | 10
63 | CCCCCOc1cc(N2CC[C@H](C)N(Cc3ccc(CC(=O)N(C)C)cc3OC)C2=O)ccc1OC [SC0173] | 4.2
64 | COc1cc(CC(=O)N2CC[C@@H](N(C)C)C2)ccc1CN1C(=O)N(c2ccc(OC)c(OCCCC3CC3)c2)CC[C@@H]1C [SC0140] | 2.1
65 | COc1ccc(N2CC[C@H](C)N(Cc3ccnc4c3ccn4CC(=O)N(C)C)C2=O)cc1OCCCC1CC1 [SC0208] | 12.6
66 | COc1cc(CC(=O)N(C)[C@H]2CCN(CCF)C2)ccc1CN1C(=O)N(c2ccc(OC)c(OCCCC3CC3)c2)CC[C@@H]1C [SC0165] | 3
67 | CCCCCOc1cc(N2CC[C@H](C)N(Cc3ccnc4c3c(Cl)cn4CCOCCOC)C2=O)ccc1OC [SC0150] | 2.2
